# According to US9206200B2, “N-linked lactam M1 receptor positive allosteric mogulators” (Merck Sharp & Dohme Corp., priority 2011, dated 2015):
# Target: T1, acetylcholine muscarinic M1 receptor (Homo sapiens, UniProt P11229)
# T1 construct: expressed in transfected cells; host or cells: CHOnfat cells (CHO cells with an NFAT reporter) expressing hM1, kept under Geneticin selection
# T1 sequence (P11229 1-460): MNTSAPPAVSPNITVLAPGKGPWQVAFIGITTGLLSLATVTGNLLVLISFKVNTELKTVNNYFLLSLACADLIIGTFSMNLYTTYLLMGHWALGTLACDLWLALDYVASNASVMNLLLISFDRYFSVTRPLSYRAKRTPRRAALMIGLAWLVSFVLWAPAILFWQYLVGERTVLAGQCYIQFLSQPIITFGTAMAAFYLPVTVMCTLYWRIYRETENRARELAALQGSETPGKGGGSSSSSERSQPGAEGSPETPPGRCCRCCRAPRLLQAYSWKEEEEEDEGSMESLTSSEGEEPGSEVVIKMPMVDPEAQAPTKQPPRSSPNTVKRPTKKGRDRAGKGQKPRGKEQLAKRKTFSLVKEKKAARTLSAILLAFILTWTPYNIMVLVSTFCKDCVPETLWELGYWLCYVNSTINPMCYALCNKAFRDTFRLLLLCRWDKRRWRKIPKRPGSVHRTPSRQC
# Experiment: muscarinic FLIPR assay: intracellular calcium in CHOnfat/hM1 cells, potentiation of EC20 acetylcholine
# Format: cell-based
# Conditions: Table 1; CHOnfat/hM1 cells, FLIPR, EC20 acetylcholine (3 nM final); read-out: M1 Pot.
# Method: The assay studies the effect of one or several concentrations of test compounds on basal or acetylcholine-stimulated Ca^2+ levels using FLIPR.
# Compounds are prepared and subjected to a preincubation period of […]. Thereafter, a single EC20 concentration of acetylcholine is added to each well (3 nM final). The intracellular Ca^2+ level of each sample is measured and compared to an acetylcholine control to determine any modulatory activity.
# Cells: CHOnfat/hM1, hM2, hM3 or hM4 cells are plated 24 hr before the assay at a density of 18,000 cells/well (100 μL) in a 384 well plate. CHOnfat/hM1 and CHOnfat/hM3 Growth Medium: 90% DMEM (Hi Glucose); 10% HI FBS; 2 mM L-glutamine; 0.1 mM NEAA; Pen-Strep; and 1 mg/ml Geneticin, are added. For M2Gqi5CHOnfat and M4Gqi5CHOnfat cells, an additional 600 ug/ml hygromycin is added.
# Equipment: 384 well plate, 120 μl, addition plate; 96-well Whatman 2 ml Uniplate Incubator, 37° C., 5% CO2; Skatron EMBLA-384 Plate Washer; Multimek Pipetting System; Genesis Freedom 200 System; Mosquito System; Temo Nanolitre Pipetting System; and FLIPR^384 Fluorometric Imaging Plate Reader System are used.
# Buffers. Assay Buffer: Hanks Balanced Salt Solution, with 20 mM Hepes, 2.5 mM Probenecid (Sigma P-8761) first dissolved in 1 N NaOH, 1% Bovine Serum Albumin (Sigma A-9647). Dye Loading Buffer: Assay Buffer plus 1% Fetal Bovine Serum and Fluo-4AM/Pluronic Acid Mixture. 2 mM Fluo-4AM ester stock in DMSO (Molecular Probes F-14202) Concentration of 2 μM in buffer for a final concentration of 1 μM in Assay. 20% Pluronic Acid Solution stock, with concentration of 0.04% in Buffer, 0.02% in Assay.
# 65 μL of 2 mM Fluo-4AM are mixed with 130 μL of 20% Pluronic Acid. The resulting solution and 650 μL FBS is added to the assay buffer for a total volume of 65 mL. Positive Controls: 4-Br-A23187: 10 mM in DMSO; final concentration 10 μM. Acetylcholine: 10 mM in water, working stock at both 20 μM and 30 μM in assay buffer, final concentration of 10 μM. This is used to check the maximum stimulation of the CHOK1/hM1 cells. 20 μM (2×) acetylcholine is added in the preincubation part of the assay, and the 30 μM (3×) stock is added in the second part. (EC20)Acetylcholine: 10 mM in water, working stock of 9 nM (3×), and final concentration in assay is 3 nM. This is used after the preincubation with test compounds. Addition of the EC20 Acetylcholine to each well with a test compound will ascertain any modulator activity. 24 wells contain 3 nM Acetylcholine alone as a control.
# Determining Activity of Putative Compounds:
# Screening Plate Compounds are titrated in 96-well plates (columns 2-11), 100% DMSO, started at a concentration of 15 mM (150× stock concentration), and 3-fold serial dilutions using Genesis Freedom200 System. Four 96-well plates are combined into a 384-well plate using Mosquito Nanolitre Pipetting System by transferring 1 μl of serial diluted compounds to each well, and 1 mM acetylcholine (100× stock concentration) were added as a control. Using Temo, 49 μl assay buffer is added to each well of the 384-well plate right before assay.
# In a 96-well Whatman 2 ml Uniplate, 9 nM Acetylcholine (3×) is pipetted into wells corresponding to the screening compounds, and into control wells. The 30 μM acetylcholine control (3×) is added into control wells, and the 3× agonist plate is transferred into a 384 well plate.
# Cells are washed three times with 100 μL of buffer, leaving […] of buffer in each well. Using Multimek, 30 μL of Dye Loading Buffer is added into each well and incubated at 37° C., 5% CO2 for up to one hr.
# After 60 min, the cells are washed three times with 100 μL of buffer, leaving 30 μL of buffer in each well. The cell plate, screening plate, and agonist addition plates are placed on the platform in the FLIPR and the door closed. A signal test to check background fluorescence and basal fluorescence signal is performed. Laser intensity is adjusted if necessary.
row,SMILES,EC50 [nM]
1,"O=C1c2cc(CN3CCC(O)(c4ccncc4)CC3)c3ccccc3c2CN1C1CCCCC1O (centres unmarked) [Example 43, 2-(2-hydroxycyclohexyl)-5-[(4-hydroxy-4-pyridin-4-ylpiperidin-1-yl)methyl]-1,2-dihydro-3H-benzo[e]isoindol-3-one]",830
2,"N#CC1(c2ccccn2)CCN(Cc2cc3c(c4ccccc24)CN([C@@H]2CCCC[C@H]2O)C3=O)CC1 [Example 46, 1-({2-[(1R,2R)-2-hydroxycyclohexyl]-3-oxo-2,3-dihydro-1H-benzo[e]isoindol-5-yl}methyl)-4-pyridin-2-ylpiperidine-4-carbonitrile]",539
3,"N#CC1(c2ccccn2)CCN(Cc2cc3c(c4ccccc24)CN([C@@H]2CCCC[C@@H]2O)C3=O)CC1 [Example 47, 1-({2-[(1R,2S)-2-hydroxycyclohexyl]-3-oxo-2,3-dihydro-1H-benzo[e]isoindol-5-yl}methyl)-4-pyridin-2-ylpiperidine-4-carbonitrile]",147
4,N#CC1(c2cccc(Cl)n2)CCN(Cc2cc3c(c4ccccc24)CN([C@H]2CCCC[C@@H]2O)C3=O)CC1 [Example 48],53
5,"C=Cc1cccc(C2(C#N)CCN(Cc3cc4c(c5ccccc35)CN([C@H]3CCCC[C@@H]3O)C4=O)CC2)n1 [Example 49, 4-(6-ethenylpyridin-2-yl)-1-({2-[(1S,2S)-2-hydroxycyclohexyl]-3-oxo-2,3-dihydro-1H-benzo[e]isoindol-5-yl}methyl)piperidine-4-carbonitrile]",114
6,"N#CC1(c2cnccn2)CCN(Cc2cc3c(c4ccccc24)CN([C@H]2CCCC[C@@H]2O)C3=O)CC1 [Example 50, 1-({2-[(1S,2S)-2-hydroxycyclohexyl]-3-oxo-2,3-dihydro-1H-benzo[e]isoindol-5-yl}methyl)-4-(pyrazin-2-yl)piperidine-4-carbonitrile]",31
7,"N#CC1(c2ccncn2)CCN(Cc2cc3c(c4ccccc24)CN([C@H]2CCCC[C@@H]2O)C3=O)CC1 [Example 51, 1-({2-[(1S,2S)-2-hydroxycyclohexyl]-3-oxo-2,3-dihydro-1H-benzo[e]isoindol-5-yl}methyl)-4-(pyrimidin-4-yl)piperidine-4-carbonitrile]",17
8,"N#CC1(c2cccnn2)CCN(Cc2cc3c(c4ccccc24)CN([C@H]2CCCC[C@@H]2O)C3=O)CC1 [Example 52, 1-({2-[(1S,2S)-2-hydroxycyclohexyl]-3-oxo-2,3-dihydro-1H-benzo[e]isoindol-5-yl}methyl)-4-(pyridazin-3-yl)piperidine-4-carbonitrile]",27
9,"O=C1c2cc(CN3CCC(F)(c4ccccc4)CC3)c3ccccc3c2CN1[C@@H]1CCCC[C@H]1O [Example 53, 5-[(4-fluoro-4-phenylpiperidin-1-yl)methyl]-2-[(1R,2R)-2-hydroxycyclohexyl]-1,2-dihydro-3H-benzo[e]isoindol-3-one]",248
10,"N#CC1(c2ccccn2)CCN(Cc2cc3c(c4ccccc24)CN(C2CCOCC2)C3=O)CC1 [Example 54, 1-{[3-oxo-2-(tetrahydro-2H-pyran-4-yl)-2,3-dihydro-1H-benzo[e]isoindol-5-yl]methyl}-4-pyridin-2-ylpiperidine-4-carbonitrile]",279
11,"N#CC1(c2ccccn2)CCN(Cc2cc3c(c4ccccc24)CN(C2CCCOC2)C3=O)CC1 (centres unmarked) [Example 55, 1-{[3-oxo-2-(tetrahydro-2H-pyran-3-yl)-2,3-dihydro-1H-benzo[e]isoindol-5-yl]methyl}-4-pyridin-2-ylpiperidine-4-carbonitrile]",1500
12,"N#CC1(c2ccccc2)CCN(Cc2cc3c(c4ccccc24)CN([C@H]2CCCC[C@@H]2O)C3=O)CC1 [Example 56, 1-({2-[(1S,2S)-2-hydroxycyclohexyl]-3-oxo-2,3-dihydro-1H-benzo[e]isoindol-5-yl}methyl)-4-phenylpiperidine-4-carbonitrile]",83
13,N#CC1(c2cccnc2)CCN(Cc2cc3c(c4ccccc24)CN([C@H]2CCCC[C@@H]2O)C3=O)CC1 [Example 57],22
14,"N#CC1(c2ccncc2)CCN(Cc2cc3c(c4ccccc24)CN([C@H]2CCCC[C@@H]2O)C3=O)CC1 [Example 58, 1-({2-[(1S,2S)-2-hydroxycyclohexyl]-3-oxo-2,3-dihydro-1H-benzo[e]isoindol-5-yl}methyl)-4-pyridin-4-ylpiperidine-4-carbonitrile]",21
15,"N#CC1(c2ccccc2Cl)CCN(Cc2cc3c(c4ccccc24)CN([C@H]2CCCC[C@@H]2O)C3=O)CC1 [Example 59, 4-(2-chlorophenyl)-1-({2-[(1S,2S)-2-hydroxycyclohexyl]-3-oxo-2,3-dihydro-1H-benzo[e]isoindol-5-yl}methyl)piperidine-4-carbonitrile]",46
16,"N#CC1(c2ccccc2F)CCN(Cc2cc3c(c4ccccc24)CN([C@@H]2CCCC[C@@H]2O)C3=O)CC1 [Example 60, 4-(2-fluorophenyl)-1-({2-[(1R,2S)-2-hydroxycyclohexyl]-3-oxo-2,3-dihydro-1H-benzo[e]isoindol-5-yl}methyl)piperidine-4-carbonitrile]",44
17,"Cc1ccccc1C1(C#N)CCN(Cc2cc3c(c4ccccc24)CN([C@@H]2CCCC[C@@H]2O)C3=O)CC1 [Example 61, 1-({2-[(1R,2S)-2-hydroxycyclohexyl]-3-oxo-2,3-dihydro-1H-benzo[e]isoindol-5-yl}methyl)-4-(2-methylphenyl)piperidine-4-carbonitrile]",107
18,"N#CC1(c2ccccn2)CCN(Cc2cc3c(c4ccccc24)CN(c2ccccc2F)C3=O)CC1 [Example 62, 1-{[2-(2-fluorophenyl)-3-oxo-2,3-dihydro-1H-benzo[e]isoindol-5-yl]methyl}-4-pyridin-2-ylpiperidine-4-carbonitrile]",650
19,"Cc1ccnc(C2(C#N)CCN(Cc3cc4c(c5ccccc35)CN(c3ccccc3F)C4=O)CC2)c1 [Example 63, 1-{[2-(2-fluorophenyl)-3-oxo-2,3-dihydro-1H-benzo[e]isoindol-5-yl]methyl}-4-(4-methylpyridin-2-yl)piperidine-4-carbonitrile]",545
20,"Cc1ccnc(C2(C#N)CCN(Cc3cc4c(c5ccccc35)CN([C@H]3CCCC[C@@H]3O)C4=O)CC2)c1 [Example 64, 1-({2-[(1S,2S)-2-hydroxycyclohexyl]-3-oxo-2,3-dihydro-1H-benzo[e]isoindol-5-yl}methyl)-4-(4-methylpyridin-2-yl)piperidine-4-carbonitrile]",9.7
